Tests used:
A375 = experiment: MTT cell viability assay, A375; format: cell-based, human; details: A375, MTT, mean ± SD
Procedure: (§1) Twelve compounds (2a-e, 3a-d and 4a-c) at a concentration range of 50–5000 μM were tested for their antiproliferative potential against four human cancer cell lines (A375—melanotic melanoma, C32—amelanotic melanoma, DU145—prostate cancer androgen-independent, MCF-7/WT—breast adenocarcinoma) and two normal cell lines: Chinese Hamster Ovary (CHO-K1) and immortalized human keratinocytes from histologically normal skin (HaCaT).
(§2) To determine the antiproliferative activity of newly synthesized compounds, the following cell lines were used: human melanotic melanoma cell line (A375), human amelanotic melanoma cell line (C32), human breast adenocarcinoma cell line (MCF-7/WT), human prostate cancer androgen-independent (DU145) and two normal cell lines: hamster ovarian (CHO-K1) and immortalized human keratinocytes from histologically normal skin (HaCaT). The cells were obtained from the cell line bank of the Department of Molecular and Cellular Biology, Wroclaw Medical University. A375, C32, MCF-7/WT, DU145 and HaCaT cells were grown in a monolayer cultured in Dulbecco’s Modified Eagle’s Medium (DMEM, Sigma-Aldrich, Poznań, Poland), supplemented with 10% of fetal bovine serum (FBS, Gibco, Paisley, UK) and 1% of antibiotics (penicillin/streptomycin, Sigma-Aldrich) and CHO-K1 were grown in HAM’s F-12 medium (Sigma-Aldrich), supplemented with 10% fetal bovine serum (FBS, Gibco) and 1% of antibiotics (penicillin/streptomycin, Sigma-Aldrich). Cell lines were cultured in the polystyrene flasks 25 or 75 cm^2 (Thermo Fisher Scientific, Waltham, MA, USA), which were stored in 37 °C and 5% CO2 in a humidified 95% atmosphere (SteriCult, Thermo Scientific, Alab). The cell medium was exchanged twice a week. The exponentially growing cells were used throughout the experiments. The cells were rinsed with phosphate-buffered saline (PBS, Sigma-Aldrich) and trypsinized by Trypsin-EDTA 0.25% solution (Sigma-Aldrich).
(§3) The influence of the compounds was performed in a monolayer culture on cancer and normal cells. Compounds were initially dissolved in DMSO; further dilutions of the compound were performed in Dulbecco’s Modified Eagle’s Medium supplemented with 10% FBS. Compounds were tested in a 50–5000 µM concentration range. In the in vitro experiments, the concentrations of DMSO in the final solution of the compounds were used 0.05%; 0.1%; 0.5%; 1%, respectively.
(§4) Cell viability was determined using the MTT colorimetric assay. All cell lines were seeded into 96-well plates to a density of 3 × 10^4 cells/well. After 24 h, the culture supernatants were removed and appropriate dilutions of compounds in the culture medium (200 µL/well) were added to the cells’ monolayer cultures and incubated for an additional 72 h. After 72 h of exposition to the compounds and the removal of the culture medium, cell viability was determined by reducing the yellow dye 3-(4,5-dimethyl-2-thiazol)-2,5-diphenyl-2H-tetrazolium bromide (MTT assay, Sigma Saint Louis, MO, USA; In Vitro Toxicology Assay) to a blue formazan product. The absorbance of the resulting solutions in three duplicate experiments was measured at the wavelength of 560 nm in a microplate reader (EnSpire, Perkin Elmer, Kraków, Poland). MTT assay is a colorimetric method that estimates the rate of metabolism in viable cells. Absorbance is directly proportional to the number of viable cells. All the experiments were performed three times and the mean absorbance values were calculated. The methodology for the evaluation of the growth of human cancer and normal cells was described previously. The cell viability in each group was expressed as a percentage of control (untreated) cells.

C32 = experiment: MTT cell viability assay, C32; format: cell-based, human; details: for IC50: Homo sapiens, C32, MTT, 72 h, mean ± SD; for cytotoxic effect (in words): C32, 72 h
Procedure: as §1, §2, §3, §4

DU145 = experiment: MTT cell viability assay, DU145; format: cell-based, human; details: for IC50: Homo sapiens, DU-145, DU145, MTT, 72 h, mean ± SD; for cytotoxic effect (in words): DU145, 72 h
Procedure: as §1, §2, §3, §4

MCF-7/WT = experiment: MTT cell viability assay, MCF-7/WT; format: cell-based; details: Homo sapiens, MCF7, 72 h, mean ± SD
Procedure: as §1, §2, §3, §4

CHO-K1 = experiment: MTT cell viability assay, CHO-K1; format: cell-based, Chinese Hamster; details: CHO-K1 normal cells, 72 h; for IC50: Cricetulus griseus, MTT, mean ± SD
Procedure: as §1, §2, §3, §4

HaCaT = experiment: MTT cell viability assay, HaCaT; format: cell-based, human; details: 72 h; for IC50: Homo sapiens, HaCaT normal cells, MTT, mean ± SD; for cytotoxic effect (in words): HaCaT human keratinocytes
Procedure: as §1, §2, §3, §4

[1] = tested on: A375, C32, DU145, MCF-7/WT, CHO-K1 and HaCaT cell lines; experiment: MTT cell viability assay, all six cell lines; format: cell-based; details: mean over the six cell lines; read-out: Mean A: the mean IC50 for the given compound
Procedure: as §1, §2, §3, §4

[2] = tested on: 60 human cancer cell lines; set-up: method as in PMID 579132; details: cited from earlier work; for Mean Growth %: 10^−5 M one dose, mean over the panel, analogs I–VII
HOP-92 = tested on: HOP-92; set-up: method as in PMID 579132; details: NS Cell Lung C. HOP-92, 10^−5 M one dose; cited from earlier work
UO-31 = tested on: UO-31; set-up: method as in PMID 579132; details: Renal C. UO-31, 10^−5 M one dose; cited from earlier work
RPMI-8226 = tested on: RPMI-8226; set-up: method as in PMID 579132; details: Leukemia, 10^−5 M one dose; cited from earlier work
UACC-62 = tested on: UACC-62; set-up: method as in PMID 579132; details: Melanoma UACC-62, 10^−5 M one dose; cited from earlier work
SF-295 = tested on: SF-295; set-up: method as in PMID 579132; details: CNS C. SF-295, 10^−5 M one dose; cited from earlier work
[3] = values > −4.00 excluded, analogs IV and V

Structure (SMILES): CCn1c(=S)sc2c(=O)[nH]c(C(F)(F)F)nc21 [Compound 2a, 3-ethyl-2-thioxo-5-(trifluoromethyl)-2,3-dihydro[1, 3]thiazolo[4,5-d]pyrimidin-7(6H)-one]
- IC50 (A375; Homo sapiens, A-375, 72 h): 429 ± 17.5 µM
- IC50 (C32): 434 ± 17.7 µM
- IC50 (DU145): 251 ± 10.2 µM
- IC50 (MCF-7/WT): 519 ± 21.1 µM
- IC50 (CHO-K1): 521 ± 21.2 µM
- IC50 (HaCaT): 615 ± 25 µM
- IC50 [1]: 462 µM

Structure (SMILES): O=c1[nH]c(C(F)(F)F)nc2c1sc(=S)n2-c1ccccc1F [Compound 2c, 3-(2-fluoropheny)l-2-thioxo-5-(trifluoromethyl)-2,3-dihydro[1, 3]thiazolo[4,5-d]pyrimidin-7(6H)-one]
- IC50 (A375; Homo sapiens, A-375, 72 h): 450 ± 17.6 µM
- IC50 (C32): 364 ± 14.3 µM
- IC50 (DU145): 163 ± 6.4 µM
- IC50 (MCF-7/WT): 420 ± 16.5 µM
- IC50 (CHO-K1): 525 ± 20.6 µM
- IC50 (HaCaT): 543 ± 21.3 µM
- IC50 [1]: 411 µM
- melting point: 211 to 212 °C

Structure (SMILES): O=c1[nH]c(C(F)(F)F)nc2c1sc(=S)n2-c1cccc(F)c1 [Compound 2d, 3-(3-fluorophenyl)-2-thioxo-5-(trifluoromethyl)-2,3-dihydro[1, 3]thiazolo[4,5-d]pyrimidin-7(6H)-one]
- IC50 (A375; Homo sapiens, A-375, 72 h): 531 ± 22.4 µM
- IC50 (C32): 384 ± 16.2 µM
- IC50 (DU145): 121 ± 5.1 µM
- IC50 (MCF-7/WT): 519 ± 21.9 µM
- IC50 (CHO-K1): 553 ± 23.3 µM
- IC50 (HaCaT): 725 ± 30.6 µM
- IC50 [1]: 472 µM

Structure (SMILES): O=c1[nH]c(C(F)(F)F)nc2c1sc(=S)n2-c1ccc(F)cc1 [Compound 2e, 3-(4-fluoropheny)l-2-thioxo-5-(trifluoromethyl)-2,3-dihydro[1, 3]thiazolo[4,5-d]pyrimidin-7(6H)-one]
- IC50 (A375; Homo sapiens, A-375, 72 h): 379 ± 13.5 µM
- IC50 (C32): 355 ± 12.6 µM
- IC50 (DU145): 139 ± 5 µM
- IC50 (MCF-7/WT): 434 ± 15.5 µM
- IC50 (CHO-K1): 483 ± 17.2 µM
- IC50 (HaCaT): 234 ± 8.3 µM
- IC50 [1]: 337 µM
- melting point: 259 to 260 °C

Structure (SMILES): CCn1c(=S)sc2c(Cl)nc(C(F)(F)F)nc21 [Compound 3a, 7-chloro-3-ethyl-5-(trifluoromethyl)[1, 3]thiazolo[4,5-d]pyrimidine-2(3H)-thione]
- IC50 (A375; Homo sapiens, A-375, 72 h): 142 ± 3.6 µM
- cytotoxic effect (in words) (C32): strong cytotoxic effect
- IC50 (C32): 89.3 ± 2.3 µM
- cytotoxic effect (in words) (DU145): strong cytotoxic effect
- IC50 (DU145): 72.5 ± 1.9 µM
- IC50 (MCF-7/WT): 356 ± 9.1 µM
- IC50 (CHO-K1): 122 ± 3.1 µM
- cytotoxic effect (in words) (HaCaT): strong cytotoxic effect
- IC50 (HaCaT): 88.3 ± 2.3 µM
- IC50 [1]: 145 µM
- melting point: 66 to 67 °C

Structure (SMILES): Fc1ccccc1-n1c(=S)sc2c(Cl)nc(C(F)(F)F)nc21 [Compound 3c, 7-chloro-(2-fluoropheny)-5-(trifluoromethyl)[1, 3]thiazolo[4,5-d]pyrimidine-2(3H)-thione]
- IC50 (A375; Homo sapiens, A-375, 72 h): 108 ± 2.6 µM
- cytotoxic effect (in words) (C32): strong cytotoxic effect
- IC50 (C32): 86.4 ± 2.1 µM
- IC50 (DU145): 168 ± 4 µM
- IC50 (MCF-7/WT): 248 ± 6 µM
- cytotoxic effect (in words) (CHO-K1): strong cytotoxic effect
- IC50 (CHO-K1): 93.8 ± 2.3 µM
- cytotoxic effect (in words) (HaCaT): strong cytotoxic effect
- IC50 (HaCaT): 37.8 ± 0.9 µM
- IC50 [1]: 124 µM

Structure (SMILES): Fc1cccc(-n2c(=S)sc3c(Cl)nc(C(F)(F)F)nc32)c1 [Compound 3d, 7-chloro-(3-fluoropheny)-5-(trifluoromethyl)[1, 3]thiazolo[4,5-d]pyrimidine-2(3H)-thione]
- IC50 (A375; 72 h): 104 ± 3.4 µM
- IC50 (A375; Homo sapiens, A-375, 72 h): 103 µM
- cytotoxic effect (in words) (C32): strong cytotoxic effect
- IC50 (C32): 87.4 ± 2.9 µM
- IC50 (DU145): 126 ± 4.2 µM
- IC50 (MCF-7/WT): 540 ± 17.9 µM
- cytotoxic effect (in words) (CHO-K1): non-toxic
- IC50 (CHO-K1): 512 ± 17 µM
- cytotoxic effect (in words) (HaCaT): non-toxic
- IC50 (HaCaT): 360 ± 11.9 µM
- IC50 [1]: 288 µM

Structure (SMILES): CNc1nc(C(F)(F)F)nc2c1sc(=S)n2-c1ccccc1 [Compound 4a, 7-(methylamino)-3-phenyl-5-(trifluoromethyl)[1, 3]thiazolo[4,5-d]pyrimidine-2(3H)-thione]
- IC50 (A375; Homo sapiens, A-375, 72 h): 114 ± 3.5 µM
- IC50 (C32): 132 ± 4.1 µM
- cytotoxic effect (in words) (DU145): high cytotoxicity
- IC50 (DU145): 96.9 ± 3 µM
- IC50 (MCF-7/WT): 144 ± 4.4 µM
- cytotoxic effect (in words) (CHO-K1): high cytotoxicity
- IC50 (CHO-K1): 48.5 ± 1.5 µM
- IC50 (HaCaT): 748 ± 22.9 µM
- IC50 [1]: 214 µM
- melting point: 197 to 198 °C

Structure (SMILES): O=c1[nH]c(-c2cccnc2)nc2c1sc(=S)n2-c1ccccc1 [III]
- Mean Growth % [2]: 105.59%
- Growth % of the most sensitive cell line (HOP-92): 73.81%

Structure (SMILES): O=c1[nH]c(-c2ccc(F)cc2)nc2c1sc(=S)n2-c1ccccc1 [II]
- Mean Growth % [2]: 106.11%
- Growth % of the most sensitive cell line (HOP-92): 55.97%

Structure (SMILES): S=c1sc2c(Cl)nc(-c3cccnc3)nc2n1-c1ccccc1 [IV]
- Mean Growth % [2]: 20.78%
- log TGI Δ ([2]; logarithmic difference between most sensible cell line and MG_MID, analog IV): 1.12
- N2: number of cell lines giving positive log TGI (≤−4.01) ([2]; of N = 59 tested cell lines, analogs IV and V): 7
- log GI50 Range [2, 3]: −5.28 to −6.26 log M
- log LC50 Range [2, 3]: −5.17 to −5.26 log M
- log TGI Range [2, 3]: −4.52 to −5.51 log M
- Growth % of the most sensitive cell line (UO-31): −85.59%

Structure (SMILES): O=c1[nH]c(-c2ccc(Cl)cc2)nc2c1sc(=S)n2-c1ccccc1 [I]
- Mean Growth % [2]: 80.85%
- Growth % of the most sensitive cell line (RPMI-8226): 29.76%

Structure (SMILES): Fc1ccc(CNc2nc(-c3ccc(F)cc3)nc3c2sc(=S)n3-c2ccccc2)cc1 [VII]
- Mean Growth % [2]: 89.50%
- Growth % of the most sensitive cell line (UACC-62): 54.52%

Structure (SMILES): Fc1ccc(CNc2nc(-c3ccc(Cl)cc3)nc3c2sc(=S)n3-c2ccccc2)cc1 [VI]
- Mean Growth % [2]: 48.46%
- Growth % of the most sensitive cell line (SF-295): −43.11%

— article PMC8778818, “Synthesis, Structural Characterization and Anticancer Activity of New 5-Trifluoromethyl-2-thioxo-thiazolo[4,5-d]pyrimidine Derivatives” (Pharmaceuticals, 2022)
